Data reported in paper PMC13580833, “Investigation of Thiazolidine‐2,4‐Dione Derivatives as Acetylcholinesterase Inhibitors: Synthesis, In Vitro Biological Activities and In Silico Studies” (ChemistryOpen, 2025).

Tests used:
[1] = system: PC12 cells; assay: Growth of PC12 cells in response to treatments (Figure 5); type: cell-based, Rattus norvegicus; settings: CHT1 pretreatment 5 and 8 μM in the presence of Aβ, 24 hours
[2] = system: HSP70; assay: Western blot of HSP70 in Aβ‐exposed PC12 cells; type: cell-based, Rattus norvegicus; settings: for Decrease of HSP70 expression compared with the Aβ group: Aβ1‐42 100 μM
Method: (§1) PC12 cells were seeded in a 6‐well plate, treated CHT1 at concentrations of 5 and 8 μM for 24 hours, washed with cold PBS, and lysed with lysis buffer for 30 minutes on ice. After centrifugation at 12,000×g for 10 minutes at 4 °C, the lysates were transferred to new tubes. The Bradford assay was utilized to determine the protein concentration.[24] SDS–PAGE was used to separate the denatured proteins, which were subsequently transferred to PVDF membranes. The membranes were blocked with nonfat dry milk in PBS containing 0.1 % Tween‐20 (PBST) and then incubated overnight at 4 °C with primary antibodies against p‐Taul/Tau, HSP70, and β‐actin as a control. Subsequently, the membranes were exposed to a secondary antibody conjugated with horseradish peroxidase (HRP) for 2 hours at room temperature. Using the densitometric scanning technique in the ImageJ program, the density of the protein bands in the relative direction was determined.

[3] = MTT assay, Aβ1‐42‐induced toxicity in PC12 cells; type: cell-based, Rattus norvegicus; settings: rat; PC12 cells, CHT1 20 μM, after 48 h, MTT; read-out: Viability percentage of that of the control
Method: (§2) Rattus norvegicus pheochromocytoma PC12 cells (Pastor Institute, Iran) were cultured in Dulbecco's modified Eagle's medium (DMEM) supplemented with 10 % fetal bovine serum (FBS) and 1 % penicillin/streptomycin (Gibco) at 37 °C with 5 % CO2. PC12 cells were treated with different concentrations of CHT1 for 12, 24, or 48 hours, and promising results were obtained.
(§3) In addition, the Aβ1‐42 peptides were diluted in water and preaggregated at 37 °C for 7 days before use. The cellular AD model was successfully constructed in vitro by incubating PC12 cells with 100 μM aggregated Aβ for 24 hours. DMSO (50 μL) and 0.5 mg/mL MTT (10 μL) stock solution were added to each well for 4 hours of incubation. After 30 minutes, the plates were shaken, and the optical density was measured at 570 nm using an ELISA reader (Biotech). The MTT assay used by Pirali et al.,[23] which underwent slight modifications, yielded promising results.

[4] = system: PC12 cells; assay: MTT assay, Aβ1‐42‐induced toxicity in PC12 cells; type: cell-based, Rattus norvegicus; settings: 0.31–20 μM CHT1, 12, 24 and 48 h
Method: as §2, §3

[5] = Ferric reducing/antioxidant power (FRAP) assay; settings: ferrous ion equivalents per gram of test compound; triplicate
Method: The ferric reducing/antioxidant power (FRAP) assay was performed based on a previous study.[[15a]] […] A standard curve was drawn to analyze different concentrations of ferrous sulfate (0.1–1 mM). The analysis was conducted in triplicates and the value of antioxidant activity results were expressed in mmol ferrous ion equivalents per gram of test compounds (mmol Fe^2+/g).

[6] = system: p‐Tau/Tau; assay: Western blot of p‐Tau/Tau in Aβ‐exposed PC12 cells; type: cell-based, Rattus norvegicus; settings: for Decrease of p‐Tau/Tau compared with the Aβ group: Aβ1‐42 100 μM
Method: as §1

[7] = target: BChE (Homo sapiens, UniProt P06276); assay: BChE inhibition assay (Ellman's method); type: biochemical
Method: The ChEs inhibitory activities based on Ellman's method were assessed using previously described methods.[[15b]] Acetylcholinesterase (electric eel, […]) inhibition assays were conducted with ATCI (10 mM) and DTNB (10 mM). The experiment required adding 50 μL of AChE in Tris‐HCl buffer (pH 8.0), 100 μL substrate, and 50 μL of the sample dissolved in DMSO (10 % in Tris‐HCl buffer) to the wells. For BChE inhibition, mixtures contained 30 μL of 10 mM DTNB, 5 μL of BChE, 30 μL of 10 mM BTChCl (10 mM), and 10 μL of samples.
All samples were dissolved in 10 % DMSO, and the experiment was performed in triplicate.

[8] = Western blotting, CHT1 5 and 8 μM
[9] = PC12 cells, Aβ1‐42 100 μM alone

Sequence of BChE (P06276 29-602, species assumed): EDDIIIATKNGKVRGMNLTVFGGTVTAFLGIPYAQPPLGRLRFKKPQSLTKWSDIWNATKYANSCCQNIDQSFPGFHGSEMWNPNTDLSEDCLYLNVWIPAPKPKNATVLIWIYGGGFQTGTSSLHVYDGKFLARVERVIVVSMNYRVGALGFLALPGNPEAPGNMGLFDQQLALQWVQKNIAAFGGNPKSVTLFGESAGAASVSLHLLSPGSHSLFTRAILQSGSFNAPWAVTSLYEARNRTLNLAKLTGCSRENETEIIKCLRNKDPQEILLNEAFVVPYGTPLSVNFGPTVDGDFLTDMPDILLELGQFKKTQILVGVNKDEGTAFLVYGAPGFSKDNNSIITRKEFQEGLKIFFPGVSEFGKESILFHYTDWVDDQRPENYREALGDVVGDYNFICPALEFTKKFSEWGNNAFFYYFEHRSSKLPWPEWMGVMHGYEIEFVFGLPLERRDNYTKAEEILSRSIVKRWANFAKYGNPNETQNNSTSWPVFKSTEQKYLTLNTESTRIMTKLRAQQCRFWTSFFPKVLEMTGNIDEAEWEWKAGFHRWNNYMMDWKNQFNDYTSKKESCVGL

COc1ccc(C=C2SC(O)=NC2=O)cc1 [CHT1, 5‐(4‐Methoxybenzylidene)thiazolidine‐2,4‐dione]
Density of PC12 cells compared with Aβ (100 μM) [1]: increased the density of PC12 cells | Decrease of HSP70 expression compared with the Aβ group ([2]; PC12 cells, 5 μM): 2.1 fold | Decrease of HSP70 expression compared with the Aβ group ([2]; PC12 cells, 8 μM): 2.26 fold | HSP70 expression level [2, 8]: downregulated | viability at 48 h, 20 μM [3]: 66.5% | Acute toxicity in PC12 cells [4]: acute toxicity was not observed | Effect of pretreatment on Aβ1‐42‐induced cell death ([4]; PC12 cells, Aβ1‐42 100 μM): significant reduction in Aβ1‐42‐induced cell death in a dose‐dependent manner | Antioxidant capacity (FRAP) [5]: 0.78 mmol Fe^2+/g | Decrease of p‐Tau/Tau compared with the Aβ group ([6]; PC12 cells, 5 μM): 2.26 fold | Decrease of p‐Tau/Tau compared with the Aβ group ([6]; PC12 cells, 8 μM): 2.01 fold | p‐Tau expression level [6, 8]: downregulated | IC50 [7]: 69.1 nM

O=C1N=C(O)SC1=Cc1ccc(Cl)cc1 [CHT2, 5‐(4‐Chlorobenzylidene)thiazolidine‐2,4‐dione]
IC50 [7]: 125 nM

O=C1NC(=O)C(=Cc2cccc(O)c2)S1 [CHT3, 5‐(3‐Hydroxybenzylidene)thiazolidine‐2,4‐dione]
Antioxidant capacity (FRAP) [5]: 0.41 mmol Fe^2+/g | IC50 [7]: 81.9 nM

O=C1NC(=O)C(=Cc2ccccc2O)S1 [CHT4, 5‐(2‐Hydroxybenzylidene)thiazolidine‐2,4‐dione]
Antioxidant capacity (FRAP) [5]: 0.45 mmol Fe^2+/g | IC50 [7]: 102 nM

O=C1NC(=O)C(=Cc2cccc3ccccc23)S1 [CHT5, 5‐((Naphthalene‐1‐yl)methylene)thiazolidine‐2,4‐dione]
Antioxidant capacity (FRAP) [5]: 0.26 mmol Fe^2+/g | IC50 [7]: 141 nM

COc1cc2c(cc1OC)C(=O)C(CC1CCN(Cc3ccccc3)CC1)C2 (centres unmarked) [Donepezil, donepezil, reference compound]
Decrease of HSP70 expression compared with the Aβ group ([2]; PC12 cells, donepezil 75 μM (positive control)): 1.92 fold

O=C1O[C@H]([C@@H](O)CO)C(O)=C1O [ascorbic acid, reference compound]
Antioxidant capacity (FRAP) [5]: 1.15 mmol Fe^2+/g

amyloid beta 1–42 [Aβ1‐42, reference compound]
HSP70 level greater than in the control group [2, 9]: 3.35 fold | p‐Tau/Tau ratio greater than in the control group [6, 9]: 4.96 fold
